Paper PMC11327025 (2024)

Key:
[1] = tested on: Apt11 (FAM) (DNA, aptamer) CTGTTTGGTACGCAG; assay: graphene oxide fluorescence assay; conditions: aptamer 0-250 nM titrated against 1.5 μM MNZ, 2 h
[2] = tested on: Apt0 (FAM) (DNA, aptamer) CTGTTTGGTAGGCAG; assay: graphene oxide fluorescence assay; conditions: aptamer 0-250 nM titrated against 1.5 μM MNZ, 2 h
[3] = tested on: Apt1-3 (DNA, aptamer) CTGTTTGCTACGCAG; assay: exonuclease I/III digestion, SYBR Gold fluorescence; conditions: 0.25 μM MNZ, 25 °C, aptamer varied
[4] = tested on: Apt1-3 (FAM) (DNA, aptamer) CTGTTTGCTACGCAG; assay: graphene oxide fluorescence assay; conditions: aptamer 0-250 nM titrated against 1.5 μM MNZ, 2 h; abstract prints error 25.59
[5] = tested on: Apt8 (FAM) (DNA, aptamer) CTGTTTGCTAGGCAG; assay: graphene oxide fluorescence assay; conditions: aptamer 0-250 nM titrated against 1.5 μM MNZ, 2 h

For `Cc1ncc([N+](=O)[O-])n1CCO`, which Kd [1] is on record?
Its Kd is 151.49 ± 56.08 nM.

And the Kd [2]?
Its Kd is 154.28 ± 51.87 nM.

And the binding [3]?
The binding was “yes”.

What about the Kd [4] of the same molecule?
The Kd was 92.60 ± 25.58 nM.

What about the Kd [5] of the same molecule?
Its Kd is 126.18 ± 41.91 nM.
